For experiment [1], the target named is human GLP-1R (Homo sapiens, UniProt P43220, G168S). As to the kind of experiment: CHO GLP-1R Clone H6 - Assay 1 (HTRF cAMP agonist assay). It is filed as cell-based. As to conditions: for EC50: CHO GLP-1R Clone H6, cAMP HTRF, geometric mean; for Emax: CHO GLP-1R Clone H6, arithmetic mean, relative to saturating GLP-1 (1 μM). (In general: TR-FRET usually uses a lanthanide donor and a delayed reading to cut background.)

Experiment [2] concerns the target human GLP-1R (Homo sapiens (Human), UniProt P43220, L260F). Kind of experiment: CHO GLP-1R Clone C6 - Assay 2 (HTRF cAMP agonist assay, low receptor density). As to conditions: for EC50: CHO GLP-1R Clone C6 (low receptor density), cAMP HTRF, geometric mean; for Emax: read-out: Assay 2 Emax (%), CHO GLP-1R Clone C6 (low receptor density), arithmetic mean, relative to saturating GLP-1 (1 μM).

Results on 14 compounds are retold here after patent US10676465B2, “GLP-1 receptor agonists and uses thereof” (Pfizer Inc., priority 2018, dated 2020).

Read-outs that look alike come from different tables or passages of the source. Bounds are passed on as bounds.

Chain of human GLP-1R (Homo sapiens (Human), UniProt P43220, L260F) (P43220 24-463 L260F): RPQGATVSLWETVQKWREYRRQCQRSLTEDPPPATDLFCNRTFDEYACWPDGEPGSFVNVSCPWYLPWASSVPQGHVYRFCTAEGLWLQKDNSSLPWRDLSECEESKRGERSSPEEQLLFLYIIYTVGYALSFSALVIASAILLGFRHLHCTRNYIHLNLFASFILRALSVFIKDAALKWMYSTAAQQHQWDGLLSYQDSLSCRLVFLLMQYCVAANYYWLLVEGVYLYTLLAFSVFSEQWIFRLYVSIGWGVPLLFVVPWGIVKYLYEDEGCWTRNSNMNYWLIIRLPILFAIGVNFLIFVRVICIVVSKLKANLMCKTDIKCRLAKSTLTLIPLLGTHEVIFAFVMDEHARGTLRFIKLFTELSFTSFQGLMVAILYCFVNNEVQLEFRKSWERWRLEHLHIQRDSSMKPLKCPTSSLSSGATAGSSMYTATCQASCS
Chain of human GLP-1R (Homo sapiens, UniProt P43220, G168S) (P43220 24-463 G168S limits assumed): as the sequence (P43220 24-463 L260F) above, with G145S, F237L counted along it

For the compound `CC1(c2ccc(Cl)cc2F)Oc2cccc(C3CCN(Cc4nc5ccc(C(=O)O)nc5n4Cc4ncco4)CC3)c2O1` (stereo not shown) [Example 13, 2-({4-[2-(4-Chloro-2-fluorophenyl)-2-methyl-1,3-benzodioxol-4-yl]piperidin-1-yl}methyl)-3-(1,3-oxazol-2-ylmethyl)-3H-imidazo[4,5-b]pyridine-5-carboxylic Acid], the concentration for a half-maximal effect (EC50) on human GLP-1R [1] amounted to 4.5 nM; at human GLP-1R [2] (Assay 2 EC50 (nM)), 38 nM. For the same compound, the Emax at human GLP-1R [1] came out at 95%; on human GLP-1R [2], 110%.
On to `CC1(c2ccc(Cl)cc2F)Oc2cccc(C3CCN(Cc4nc5ccc(C(=O)O)nc5n4Cc4cnco4)CC3)c2O1` (stereo not shown) [Example 81, 2-({4-[2-(4-chloro-2-fluorophenyl)-2-methyl-1,3-benzodioxol-4-yl]piperidin-1-yl}methyl)-3-(1,3-oxazol-5-ylmethyl)-3H-imidazo[4,5-b]pyridine-5-carboxylic acid], for which the EC50 at human GLP-1R [1] came out at 29 nM; on human GLP-1R [2] (read-out: Assay 2 EC50), 54 nM. In addition, the maximal response (Emax) at human GLP-1R [1] and at human GLP-1R [2] was 110% throughout.
On to `COCCn1c(C2CC23CCN(c2cccc4c2OC(C)(c2ccc(Cl)cc2F)O4)CC3)nc2ccc(C(=O)O)cc21` (single isomer, unassigned) [Example 25, 2-{6-[2-(4-chloro-2-fluorophenyl)-2-methyl-1,3-benzodioxol-4-yl]-6-azaspiro[2.5]oct-1-yl}-1-(2-methoxyethyl)-1H-benzimidazole-6-carboxylic acid], for which the EC50 on human GLP-1R [1] and on human GLP-1R [2] (Assay 2 EC50 (nM)) was over 20000 nM each time.
With `CC1(c2ccc(Cl)cc2F)Oc2cccc(C3CCN(Cc4nc5ccc(C(=O)O)cc5n4C4CCOC4)CC3)c2O1` (stereo not shown) [Example 61, 2-({4-[2-(4-chloro-2-fluorophenyl)-2-methyl-1,3-benzodioxol-4-yl]piperidin-1-yl}methyl)-1-(tetrahydrofuran-3-yl)-1H-benzimidazole-6-carboxylic acid], the EC50 at human GLP-1R [1] stood at 10 nM; at human GLP-1R [2] (read-out: Assay 2 EC50), 240 nM. Also, the results for the Emax at human GLP-1R [1] and at human GLP-1R [2] were 79% and 85%, respectively.
As for `Cn1cnc(CCn2c(CN3CCC(c4cccc5c4OC(C)(c4ccc(Cl)cc4F)O5)CC3)nc3ccc(C(=O)O)cc32)c1` (stereo not shown) [Example 55, 2-({4-[2-(4-chloro-2-fluorophenyl)-2-methyl-1,3-benzodioxol-4-yl]piperidin-1-yl}methyl)-1-[2-(1-methyl-1H-imidazol-4-yl)ethyl]-1H-benzimidazole-6-carboxylic acid], the 50% effective concentration (EC50) at human GLP-1R [1] stood at 74 nM; on human GLP-1R [2] (read-out: Assay 2 EC50), 1100 nM. In addition, the values for the maximum response (Emax) at human GLP-1R [1] and at human GLP-1R [2] were 81% and 50%, respectively.
With `COCCn1c(CN2CCC(c3cccc4c3OC(c3ccc(Cl)cc3F)O4)CC2)nc2ccc(C(=O)O)cc21` (stereo not shown) [Example 20, 2-({4-[2-(4-chloro-2-fluorophenyl)-1,3-benzodioxol-4-yl]piperidin-1-yl}methyl)-1-(2-methoxyethyl)-1H-benzimidazole-6-carboxylic acid], the figures for the half-maximal effective concentration (EC50) on human GLP-1R [1] and on human GLP-1R [2] (read-out: Assay 2 EC50) were 17 nM and 270 nM, respectively. The results for the Emax on human GLP-1R [1] and on human GLP-1R [2] were 85% and 100%, respectively.
The corresponding values for `CN(C)C(=O)Cn1c(CN2CCC(c3cccc4c3OC(C)(c3ccc(Cl)cc3F)O4)CC2)nc2ccc(C(=O)O)cc21` (stereo not shown) [Example 66, 2-({4-[2-(4-chloro-2-fluorophenyl)-2-methyl-1,3-benzodioxol-4-yl]piperidin-1-yl}methyl)-1-[2-(dimethylamino)-2-oxoethyl]-1H-benzimidazole-6-carboxylic acid] are 51 nM, 850 nM, 82% and 74%.
Turning to `CC1(c2ccc(Cl)cc2F)Oc2cccc(C3CCN(Cc4nc5ccc(C(=O)O)cc5n4C[C@@H]4CCCO4)CC3)c2O1` (stereo partly drawn) [Example 79, 2-({4-[2-(4-chloro-2-fluorophenyl)-2-methyl-1,3-benzodioxol-4-yl]piperidin-1-yl}methyl)-1-[(2S)-tetrahydrofuran-2-ylmethyl]-1H-benzimidazole-6-carboxylic acid], the figures for the EC50 at human GLP-1R [1] and at human GLP-1R [2] (read-out: Assay 2 EC50) were 1.4 nM and 21 nM, respectively. The maximal effect (Emax) on human GLP-1R [1] and on human GLP-1R [2] was 85% in each case.
In the case of `CC1(c2ccc(Cl)cc2F)Oc2cccc(C3CCN(Cc4nc5ccc(C(=O)O)cc5n4Cc4cocn4)CC3)c2O1` (stereo not shown) [Example 58, 2-({4-[2-(4-chloro-2-fluorophenyl)-2-methyl-1,3-benzodioxol-4-yl]piperidin-1-yl}methyl)-1-(1,3-oxazol-4-ylmethyl)-1H-benzimidazole-6-carboxylic acid], the EC50 on human GLP-1R [1] came to 4 nM; on human GLP-1R [2] (read-out: Assay 2 EC50), 23 nM. Also, the values for the Emax on human GLP-1R [1] and on human GLP-1R [2] were 98% and 88%, respectively.
On to `COCCn1c(C2CC23CCN(c2cccc4c2OC(C)(c2ccc(Cl)cc2F)O4)CC3)nc2ccc(C(=O)O)cc21` (single isomer, unassigned) [Example 26, 2-{6-[2-(4-chloro-2-fluorophenyl)-2-methyl-1,3-benzodioxol-4-yl]-6-azaspiro[2.5]oct-1-yl}-1-(2-methoxyethyl)-1H-benzimidazole-6-carboxylic acid], for which the EC50 at human GLP-1R [1] and at human GLP-1R [2] (Assay 2 EC50 (nM)) was over 20000 nM throughout.
For the compound `CC1(c2ccc(Cl)cc2F)Oc2cccc(C3CCN(Cc4nc5ccc(C(=O)O)cc5n4Cc4ncco4)CC3)c2O1` (stereo not shown) [Example 80, 2-({4-[2-(4-chloro-2-fluorophenyl)-2-methyl-1,3-benzodioxol-4-yl]piperidin-1-yl}methyl)-1-(1,3-oxazol-2-ylmethyl)-1H-benzimidazole-6-carboxylic acid], the EC50 worked out at 1.1 nM on human GLP-1R [1] and 6.9 nM on human GLP-1R [2] (read-out: Assay 2 EC50). The Emax at human GLP-1R [1] was 87%; at human GLP-1R [2], 96%.
The corresponding values for `Cn1c(CN2CCC(c3cccc4c3O[C@@](C)(c3ccc(Cl)cc3F)O4)CC2)nc2ccc(C(=O)O)cc21` [Example 14, 2-({4-[(2S)-2-(4-Chloro-2-fluorophenyl)-2-methyl-1,3-benzodioxol-4-yl]piperidin-1-yl}methyl)-1-methyl-1H-benzimidazole-6-carboxylic Acid] are 7 nM, 79 nM, 95% and 85%.
The corresponding values for `COCCn1c(CN2CCC(c3cccc4c3OC(C)(c3ccccc3OC)O4)CC2)nc2ccc(C(=O)O)cc21` (stereo not shown) [Example 37, 1-(2-methoxyethyl)-2-({4-[2-(2-methoxyphenyl)-2-methyl-1,3-benzodioxol-4-yl]piperidin-1-yl}methyl)-1H-benzimidazole-6-carboxylic acid] are 81 nM, 1000 nM, 100% and 83%.
Take `COCCn1c(CN2CCC(c3cccc4c3OC(C)(c3ccc(Cl)cc3F)O4)CC2)nc2ccc(C(=O)O)cc21` (stereo not shown) [Example 24, 2-({4-[2-(4-chloro-2-fluorophenyl)-2-methyl-1,3-benzodioxol-4-yl]piperidin-1-yl}methyl)-1-(2-methoxyethyl)-1H-benzimidazole-6-carboxylic acid]: the concentration for a half-maximal effect (EC50) on human GLP-1R [1] worked out at 1.4 nM; on human GLP-1R [2] (read-out: Assay 2 EC50), 49 nM. Moreover, the results for the Emax on human GLP-1R [1] and on human GLP-1R [2] were 82% and 110%, respectively.

As a reminder, the EC50 is the midpoint of the concentration-response curve. Broadly, the Emax is the greatest response seen or fitted, relative to the assay's reference.
